According to publication PMC5589637, “New perspectives of cobalt tris(bipyridine) system: anti-cancer effect and its collateral sensitivity towards multidrug-resistant (MDR) cancers” (Oncotarget, 2017):

Test: Pharmacokinetic study (HPLC-MS of blood samples)
Type: in vivo
Details: male C57BL/6 mice
Procedure: Pharmacokinetic study of cobalt complex 2 was performed in male C57BL/6 mice by the dosage of 40 mg/kg. The source of mouse and practice of husbandry were the same as described in the methodology section of LLC-1 Xenograft Tumor experiment. Cobalt complex 2 was diluted in the formula (PEG400: H2O: Ethanol = 6:3:1) and administered by intraperitoneal in a volume of 0.005 mL/g bodyweight. After dosing, blood samples were collected to sodium heparin anticoagulant tube at different time points (5, 15, 30 min, and then 1, 2, 4, 8, 12 and 24 hours); 4 mice were used for each time point. Approximately 200 μL of blood was collected via orbital vein from each anesthetized mouse by isoflurane. Plasma was separated by centrifugation at 3000 g for 10 minutes at 4°C. The plasma was protected and stored at −80°C until analyzed by liquid chromatography-mass spectrometry/mass spectrometry (LC-MS/MS) for quantification.
Plasma samples were thawed at room temperature and then vortexed to ensure sample solution homogeneity. Firstly, a 20 μL aliquot of each plasma sample were loaded into 1.5 mL tube, 100 μL acetonitrile was added, vortexed then centrifuged at 13000 rpm for 10 min. the supernatant was collected. The plasma cobalt complex 2 concentrations were quantified using Thermo HPLC Ultimate 3000 system. The compound in plasma samples were analyzed by using the Agilent Zorbax Eclipse Plus C-18 column with a particle size of 1.8 μm. The parameters of the gradient elution program were applied as follows: mobile phase A (0.1% formic acid in water) and mobile phase B acetonitrile: 0–5.5 min, 20% B; 5.5–7 min, 90% B; 7–10 min, 20% B. The column and autosampler temperature were maintained at 40 and 4 °C, respectively. The gas temperature was set 320 °C with flow rate (0.8 mL/min), gases were set at 10 psi for the nebulizer, capillary, 3500 V.

## Cc1ccnc(-c2cc(C)ccn2)c1 [Me2-bpy]
40 mg/kg intraperitoneal of complex 2, 5 min to 24 hours
  species detected in blood samples by HPLC-MS: only the free ligand of Me2-bpy was detected
40 mg/kg intraperitoneal of complex 2, after 2 hours
  free ligand signal (m/z 185.1071) in samples after 2-hour time interval: very weak or no detectable signal
